For assay [1], the system named is rheumatoid arthritis patients with active disease despite METHOTREXATE treatment. The following applies: in combination with a fixed low-dose (7.5 mg per week) of METHOTREXATE; small number of patients; cited from earlier work.
Assay [2] deals with rheumatoid arthritis patients unresponsive to METHOTREXATE alone. The following applies: combination with METHOTREXATE; cited from earlier work.
For assay [3], the system named is Collagen-induced arthritis (CIA) in DBA/1 mice. Nature of the assay: Collagen-induced arthritis (CIA) in DBA/1 mice. It is filed as in vivo. As to conditions: for severity of arthritis compared with control mice: single drug, oral daily for 10 consecutive days, ROFLUMILAST 1 mg/kg, PUMAFENTRINE hydrochloride 3 mg/kg, significant on days 35 and 39. The procedure:
Collagen-induced arthritis (CIA) in DBA/1 mice: Mice were immunized intradermally with 200 μg/mouse of type II (CII) bovine collagen in Freund's complete adjuvant (FCA) and challenged intraperitoneally 21 days later with 200 μg/mouse of CII in saline. The mice were then administered orally either with 1 mg/kg/day of 3-Cyclopropylmethoxy-4-difluoromethoxy-N-(3,5-dichloropyrid-4-yl)-benzamide [INN: ROFLUMILAST], 3 mg/kg/day of (−)-cis-9-ethoxy-8-methoxy-2-methyl-1,2,3,4,4a,10b-hexahydro-6-(4-diisopropylaminocarbonylphenyl)-benzo[c][1,6]naphthyridine hydrochloride [INN: PUMAFENTRINE hydrochloride], 1 mg/kg/day of METHOTREXATE, or with combinations of METHOTREXATE and the PDE inhibitors for 10 consecutive days, starting 2 days after challenge injection. Control mice received either METHOTREXATE alone (1 mg/kg/day) or the vehicle only.
DBA/1 mice were obtained from Harlan Olac (Bicester, UK) and used 8 weeks old. CIA was induced as described previously (Ruchatz, H., et al., J Immunol. 1998, 160(11):5654-60). Briefly, mice were immunised by intradermal injection of 200 μg of acidified type II collagen (Sigma, Poole UK) emulsified in Freund's Complete adjuvant (FCA, Difco, Detroit, Mich., USA). Collagen (200 μg in PBS) was injected intraperitoneally on day 21 (challenge). Mice were individually ear marked for identification. They were monitored daily and scored every other day for signs of arthritis as follows: 0=normal, 1=erythema, 2=erythema plus swelling, 3=extension/loss of function, and total score=sum of four limbs. Paw thickness was measured with a dial-calliper (Kroeplin, Munich, Germany). […] (3 mg/kg, calculated for PUMAFENTRINE), METHOTREXATE (1 mg/kg), or combinations were administered orally daily by a gavage tube for 10 consecutive days. […] Treatment was withdrawn on day 33 and the mice monitored for a further 8 days. Influence of drug treatments on mean clinical index, arthritic paws and paw thickness were analysed by one-way ANOVA at days 31, 35, and 39. Between group differences in incidence of arthritis were analysed by chi-square test.

Entries after “also recorded” stand apart in the source; their conditions may differ.

As to “INFLIXIMAB: chimeric human-murine monoclonal antibody, a specific inhibitor of tumour necrosis factor alpha”, in assay [1], the “degree and duration of efficacy” value is “enhanced degree and duration of efficacy”.
ETANERCEPT: the “efficacy in rheumatoid arthritis” value in assay [2] was “effective”.
Take `CCOc1cc2c(cc1OC)C(c1ccc(C(=O)N(C(C)C)C(C)C)cc1)=N[C@H]1CCN(C)C[C@@H]21.Cl` [PUMAFENTRINE hydrochloride, (−)-cis-9-ethoxy-8-methoxy-2-methyl-1,2,3,4,4a,10b-hexahydro-6-(4-diisopropylaminocarbonylphenyl)-benzo[c][1,6]naphthyridine hydrochloride]: in assay [3] (hydrochloride), the “severity of arthritis compared with control mice” value is “effective in reducing the severity of arthritis; also recorded: significantly less severe disease”.
For `O=C(Nc1c(Cl)cncc1Cl)c1ccc(OC(F)F)c(OCC2CC2)c1` [ROFLUMILAST, 3-Cyclopropylmethoxy-4-difluoromethoxy-N-(3,5-dichloropyrid-4-yl)-benzamide], the “severity of arthritis compared with control mice” value in assay [3] is given as “effective in reducing the severity of arthritis; also recorded: significantly less severe disease”.
`CN(Cc1cnc2nc(N)nc(N)c2n1)c1ccc(C(=O)N[C@@H](CCC(=O)O)C(=O)O)cc1` [METHOTREXATE, N-(p{[(2,4-diamino-6-pteridinyl)methyl]methylamino}benzoyl)-L-(+)-glutamic acid]: in assay [3] (METHOTREXATE alone 1 mg/kg/day, oral, 10 days), the “clinical improvement compared with control mice” value is reported as “failed to produce a significant clinical improvement; also recorded: failed to demonstrate any clinical improvement”.
